From ChEMBL document CHEMBL1201862, “PubChem BioAssay data set” (2004) come the findings set out here.

Test systems include IGROV-1; HOP-62; CCRF-CEM; LOX IMVI; ACHN; NCI-H226; T47D; SW-620; SK-MEL-5; PC-3; MCF7; RPMI-8226; A498; U-251; K562; SN12C; RXF 393; NCI-H522; Malme-3M; SF-268.
Test in all cases: DTP human tumour cell line panel, 48 h

Molecules are shown by their SMILES.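 Following 48 hours of exposure in 96-well plates, responses at five concentrations were used to interpolate endpoints linearly. GI50: concentration for 50% inhibition of growth.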 Active and inactive are the calls of the source. Rule as the data show it: active = GI50 up to about 1.1 µM and inactive = higher. A value given as a limit tells only on which side of the number the result lay.

Usually GI50 stands for the concentration that inhibits growth by half. Turning to `N#C/C(C(=O)Nc1ccc(Cl)cc1)=C(/N)N1CCOCC1`, the GI50 with IGROV-1 was > 100 µM (inactive); with HOP-62 it was 73.3 µM (inactive); in the assay with CCRF-CEM, > 100 µM (inactive); with LOX IMVI, > 100 µM (inactive); in the assay on ACHN, > 100 µM (inactive); with NCI-H226 it was > 100 µM (inactive). Besides, the GI50 in the assay on T47D is > 100 µM (inactive); in the assay on SW-620, > 100 µM (inactive); in the assay with SK-MEL-5, 74.5 µM (inactive); with PC-3 it was > 100 µM (inactive); in the assay on MCF7, > 100 µM (inactive); in the assay on RPMI-8226, > 100 µM (inactive). Also, the GI50 is > 100 µM (inactive) with A498, > 100 µM (inactive) in the assay with U-251, 61.2 µM (inactive) with K562 and > 100 µM (inactive) in the assay with SN12C.

`[O-]c1c[n+](CC[n+]2cc([O-])on2)no1`: the GI50 in the assay on IGROV-1, in the assay with HOP-62, in the assay on CCRF-CEM, with LOX IMVI, in the assay on RXF 393 and in the assay with ACHN was > 100 µM (inactive) in each case. In addition, the GI50 with T47D, in the assay on SW-620, in the assay on SK-MEL-5, with NCI-H522, in the assay on PC-3 and in the assay with MCF7 was > 100 µM (inactive) each time. Further, the GI50 with RPMI-8226, in the assay on A498, in the assay with Malme-3M, in the assay with U-251, with K562 and in the assay on SF-268 was > 100 µM (inactive) in each case. Moreover, the GI50 with SN12C was > 100 µM (inactive).

With `COc1ccc2cc(C(C)C(=O)N3C(=O)OCC3(C)C)ccc2c1` (stereo not drawn), the GI50 with IGROV-1 is > 100 µM (inactive); in the assay with HOP-62 it was > 100 µM (inactive); with CCRF-CEM, > 10 µM (inactive); with LOX IMVI, > 100 µM (inactive); with ACHN it was > 100 µM (inactive); with NCI-H226 it was > 100 µM (inactive). The GI50 in the assay with T47D, in the assay with SW-620, with SK-MEL-5, with PC-3, with MCF7 and in the assay with RPMI-8226 was > 100 µM (inactive) throughout. For the same compound, the GI50 in the assay with A498, in the assay with Malme-3M, with U-251, in the assay on K562, with SF-268 and with SN12C was > 100 µM (inactive) each time.

Regarding `O=C1C(Cl)=C(OCCCl)C(=O)c2c(O)ccc(O)c21`, the GI50 was 7.13 µM (inactive) with IGROV-1; 16.7 µM (inactive) in the assay with HOP-62; 0.0813 µM (active) in the assay with CCRF-CEM; 4.32 µM (inactive) with LOX IMVI; 6.44 µM (inactive) in the assay on RXF 393; 3.16 µM (inactive) in the assay with ACHN. The GI50 in the assay with NCI-H226 was 17 µM (inactive); with T47D it was 1.39 µM (inactive); with SW-620, 2.05 µM (inactive); with SK-MEL-5 it was 2.75 µM (inactive); in the assay with PC-3 it was 13.2 µM (inactive); in the assay on MCF7, 2.06 µM (inactive). The GI50 in the assay with RPMI-8226 was 0.74 µM (active); in the assay on A498, 20.5 µM (inactive); in the assay on Malme-3M it was 2.89 µM (inactive); in the assay with U-251, 14.3 µM (inactive); in the assay on K562, 0.267 µM (active); in the assay on SF-268, 5.47 µM (inactive). For the same compound, the GI50 in the assay with SN12C is 14.8 µM (inactive).

Take `CO[C@H]1O[C@@H]2CO[C@@H](c3ccccc3)O[C@H]2[C@@H]2C/C=C\CCC[C@@]12O`: the GI50 with IGROV-1 is 30 µM (inactive); in the assay on HOP-62 it was 18 µM (inactive); with CCRF-CEM it was 31 µM (inactive); with LOX IMVI, 17.8 µM (inactive); in the assay with RXF 393, 17.2 µM (inactive); in the assay on ACHN it was 17.3 µM (inactive). Besides, the GI50 in the assay with NCI-H226 is 20.7 µM (inactive); with T47D, 33.2 µM (inactive); with SW-620, 26.9 µM (inactive); with SK-MEL-5, 17.8 µM (inactive); with NCI-H522 it was 20.1 µM (inactive); in the assay on PC-3, 25.3 µM (inactive). Also, the GI50 with MCF7 was 19.2 µM (inactive); with RPMI-8226, 17.2 µM (inactive); with A498, 14.8 µM (inactive); in the assay on U-251 it was 20.8 µM (inactive); with K562, 20 µM (inactive); with SF-268, 21.6 µM (inactive). In the assay with SN12C, the GI50 is 17.7 µM (inactive).

Regarding `O=Cc1c2ccccc2n2ccc3c4ccccc4[nH]c3c12`, the GI50 in the assay on IGROV-1, in the assay on HOP-62, with CCRF-CEM, with LOX IMVI, in the assay with RXF 393 and with ACHN was > 10 µM (inactive) each time. The GI50 in the assay on NCI-H226, with T47D, in the assay on SW-620, in the assay with SK-MEL-5, in the assay on NCI-H522 and in the assay with PC-3 was > 10 µM (inactive) throughout. For the same compound, the GI50 with MCF7 was 5.21 µM (inactive); with RPMI-8226 it was > 10 µM (inactive); in the assay on Malme-3M, > 10 µM (inactive); in the assay with U-251, > 10 µM (inactive); with K562, > 10 µM (inactive); in the assay on SF-268, > 10 µM (inactive). For the same compound, the GI50 in the assay with SN12C is > 10 µM (inactive).

In the case of `O=C(Cn1cc(F)c(=O)[nH]c1=O)C12CC3CC(CC(C3)C1)C2`, the GI50 in the assay with IGROV-1, in the assay on HOP-62, in the assay on CCRF-CEM, in the assay with LOX IMVI, with RXF 393 and with ACHN was > 100 µM (inactive) in each case. Also, the GI50 with T47D, with SW-620, in the assay on SK-MEL-5, in the assay with NCI-H522, in the assay with PC-3 and with MCF7 was > 100 µM (inactive) throughout. Further, the GI50 in the assay with RPMI-8226, in the assay with A498, in the assay with Malme-3M, with U-251, in the assay with K562 and in the assay with SF-268 was > 100 µM (inactive) throughout. The GI50 in the assay on SN12C was > 100 µM (inactive).

For `COc1ccc(-c2nc(-c3cc4ccccc4oc3=O)cs2)cc1`, the GI50 in the assay with IGROV-1 was 86.1 µM (inactive); in the assay on HOP-62 it was 32 µM (inactive); with CCRF-CEM it was > 100 µM (inactive); in the assay with LOX IMVI it was > 100 µM (inactive); in the assay with RXF 393, 85.3 µM (inactive); with ACHN, 34 µM (inactive). The GI50 in the assay on NCI-H226, in the assay on T47D, in the assay on SW-620, in the assay on SK-MEL-5, in the assay with NCI-H522 and in the assay with PC-3 was > 100 µM (inactive) throughout. The GI50 in the assay on MCF7 is > 100 µM (inactive); in the assay on RPMI-8226, > 100 µM (inactive); in the assay on Malme-3M it was > 100 µM (inactive); in the assay with U-251, 21.9 µM (inactive); in the assay with K562, > 100 µM (inactive); with SF-268 it was 61.2 µM (inactive). Besides, the GI50 in the assay on SN12C is 44.5 µM (inactive).

`O=C1OC(c2ccccc2)=N/C1=C\c1cn[nH]n1`: the GI50 is > 100 µM (inactive) in the assay on IGROV-1; > 100 µM (inactive) with HOP-62; 97.1 µM (inactive) with CCRF-CEM; > 100 µM (inactive) in the assay on LOX IMVI; > 100 µM (inactive) in the assay with RXF 393; > 100 µM (inactive) in the assay on ACHN. For the same compound, the GI50 with NCI-H226, in the assay on T47D, with SW-620, with PC-3, with MCF7 and in the assay on RPMI-8226 was > 100 µM (inactive) in each case. For the same compound, the GI50 with A498 was > 100 µM (inactive); with Malme-3M, 83.4 µM (inactive); in the assay on U-251, > 100 µM (inactive); in the assay on K562 it was > 100 µM (inactive); in the assay with SF-268, > 100 µM (inactive); with SN12C, > 100 µM (inactive).

As to `COc1cc(CCN(C)C)cc(OC)c1OC`, the GI50 in the assay on IGROV-1, in the assay with HOP-62, in the assay on CCRF-CEM, with LOX IMVI, in the assay on RXF 393 and in the assay with ACHN was > 100 µM (inactive) in each case. Further, the GI50 in the assay with NCI-H226, in the assay with T47D, with SW-620, with SK-MEL-5, in the assay on NCI-H522 and in the assay on PC-3 was > 100 µM (inactive) throughout. The GI50 with MCF7, with RPMI-8226, with A498, with U-251, in the assay on K562 and in the assay with SF-268 was > 100 µM (inactive) throughout. Further, the GI50 in the assay with SN12C was > 100 µM (inactive).

Consider `CSCCCCCCCCCCOc1ccc(C=C2C(=C(C#N)C#N)c3ccccc3C2=C(C#N)C#N)cc1`, for which the GI50 in the assay with IGROV-1 was 17.3 µM (inactive); in the assay on HOP-62, 17.9 µM (inactive); in the assay on CCRF-CEM, 1.32 µM (inactive); in the assay on LOX IMVI, 23.5 µM (inactive); in the assay on RXF 393, 17.3 µM (inactive); in the assay on ACHN, 13.1 µM (inactive). Moreover, the GI50 with NCI-H226 is 30.4 µM (inactive); with T47D, 21.6 µM (inactive); in the assay on SW-620, 17.8 µM (inactive); in the assay on SK-MEL-5 it was 17.9 µM (inactive); in the assay on NCI-H522 it was 19.5 µM (inactive); in the assay with PC-3 it was 17.6 µM (inactive). The GI50 in the assay on MCF7 was 14.5 µM (inactive); in the assay with RPMI-8226, 28.8 µM (inactive); in the assay with A498 it was 17 µM (inactive); in the assay on U-251, 17.5 µM (inactive); in the assay on K562 it was 30.6 µM (inactive); with SF-268, 17.9 µM (inactive).
